{
  "source": "patent US5430062A",
  "about": "“Stilbene derivatives as anticancer agents” (priority 1993, dated 1995)",
  "key": {"K-562 leukemia": {"test_system": "K-562 leukemia", "assay": "Cytotoxicity, K-562", "type": "cell-based", "excerpt": "(§1) A total of 55 cell lines from the leukemia, non-small cell lung cancer, small cell lung cancer, colon cancer, CNS cancer, melanoma, ovarian cancer, and renal cancer panels were examined."}, "[1]": {"test_system": "EKCK non-small cell lung cancer", "assay": "Cytotoxicity, EKCK", "type": "cell-based", "conditions": "read-out: Log10 GI50, EKCK (converted)", "excerpt": "as §1"}, "[2]": {"test_system": "HOP-92 non-small cell lung cancer", "assay": "Cytotoxicity, HOP-92", "type": "cell-based", "conditions": "Homo sapiens, read-out: Log10 GI50, HOP-92 (converted)", "excerpt": "as §1"}, "[3]": {"test_system": "NCI-H23 non-small cell lung cancer", "assay": "Cytotoxicity, NCI-H23", "type": "cell-based", "conditions": "Homo sapiens, read-out: Log10 GI50, NCI-H23 (converted)", "excerpt": "as §1"}, "[4]": {"test_system": "NCI-H322M non-small cell lung cancer", "assay": "Cytotoxicity, NCI-H322M", "type": "cell-based", "conditions": "Homo sapiens, read-out: Log10 GI50, NCI-H322M (converted)", "excerpt": "as §1"}, "[5]": {"test_system": "LXFL 529 non-small cell lung cancer", "assay": "Cytotoxicity, LXFL 529", "type": "cell-based", "conditions": "Homo sapiens, read-out: Log10 GI50, LXFL 529 (converted)", "excerpt": "as §1"}, "[6]": {"test_system": "DMS114 small cell lung cancer", "assay": "Cytotoxicity, DMS114", "type": "cell-based", "conditions": "Homo sapiens, DMS-114; read-out: Log10 GI50, DMS114 (converted)", "excerpt": "as §1"}, "DLD-1 colon cancer": {"test_system": "DLD-1 colon cancer", "assay": "Cytotoxicity, DLD-1", "type": "cell-based", "conditions": "Homo sapiens, read-out: Log10 GI50, DLD-1 (converted)", "excerpt": "as §1"}, "HCT-116 colon cancer": {"test_system": "HCT-116 colon cancer", "assay": "Cytotoxicity, HCT-116", "type": "cell-based", "conditions": "Homo sapiens, read-out: Log10 GI50, HCT-116 (converted)", "excerpt": "as §1"}, "HCT-15 colon cancer": {"test_system": "HCT-15 colon cancer", "assay": "Cytotoxicity, HCT-15", "type": "cell-based", "conditions": "Homo sapiens, read-out: Log10 GI50, HCT-15 (converted)", "excerpt": "as §1"}, "HT29 colon cancer": {"test_system": "HT29 colon cancer", "assay": "Cytotoxicity, HT29 (Table XI panel)", "type": "cell-based", "conditions": "Homo sapiens, HT-29; read-out: Log10 GI50, HT29 (converted)", "excerpt": "as §1"}, "KM12 colon cancer": {"test_system": "KM12 colon cancer", "assay": "Cytotoxicity, KM12", "type": "cell-based", "conditions": "Homo sapiens, read-out: Log10 GI50, KM12 (converted)", "excerpt": "as §1"}, "KM20L2 colon cancer": {"test_system": "KM20L2 colon cancer", "assay": "Cytotoxicity, KM20L2", "type": "cell-based", "conditions": "Homo sapiens, KM-20L2; read-out: Log10 GI50, KM20L2 (converted)", "excerpt": "as §1"}, "SW-620 colon cancer": {"test_system": "SW-620 colon cancer", "assay": "Cytotoxicity, SW-620", "type": "cell-based", "conditions": "Homo sapiens, read-out: Log10 GI50, SW-620 (converted)", "excerpt": "as §1"}, "SF-268 CNS cancer": {"test_system": "SF-268 CNS cancer", "assay": "Cytotoxicity, SF-268", "type": "cell-based", "conditions": "Homo sapiens, SF-268, read-out: Log10 GI50, SF-268 (converted)", "excerpt": "as §1"}, "SNB-78 CNS cancer": {"test_system": "SNB-78 CNS cancer", "assay": "Cytotoxicity, SNB-78", "type": "cell-based", "conditions": "Homo sapiens, read-out: Log10 GI50, SNB-78 (converted)", "excerpt": "as §1"}, "U251 CNS cancer": {"test_system": "U251 CNS cancer", "assay": "Cytotoxicity, U251", "type": "cell-based", "conditions": "Homo sapiens, U-251; read-out: Log10 GI50, U251 (converted)", "excerpt": "as §1"}, "XF498 CNS cancer": {"test_system": "XF498 CNS cancer", "assay": "Cytotoxicity, XF498", "type": "cell-based", "conditions": "Homo sapiens, read-out: Log10 GI50, XF498 (converted)", "excerpt": "as §1"}, "LOX IMVI melanoma": {"test_system": "LOX IMVI melanoma", "assay": "Cytotoxicity, LOX IMVI", "type": "cell-based", "conditions": "Homo sapiens, read-out: Log10 GI50, LOX IMVI (converted)", "excerpt": "as §1"}, "MALME-3M melanoma": {"test_system": "MALME-3M melanoma", "assay": "Cytotoxicity, MALME-3M", "type": "cell-based", "conditions": "Homo sapiens, read-out: Log10 GI50, MALME-3M (converted)", "excerpt": "as §1"}, "M19-MEL melanoma": {"test_system": "M19-MEL melanoma", "assay": "Cytotoxicity, M19-MEL", "type": "cell-based", "conditions": "Homo sapiens, read-out: Log10 GI50, M19-MEL (converted)", "excerpt": "as §1"}, "SK-MEL-5 melanoma": {"test_system": "SK-MEL-5 melanoma", "assay": "Cytotoxicity, SK-MEL-5 (Table XI panel)", "type": "cell-based", "conditions": "Homo sapiens, read-out: Log10 GI50, SK-MEL-5 (converted)", "excerpt": "as §1"}, "UACC-257 melanoma": {"test_system": "UACC-257 melanoma", "assay": "Cytotoxicity, UACC-257", "type": "cell-based", "conditions": "Homo sapiens, read-out: Log10 GI50, UACC-257 (converted)", "excerpt": "as §1"}, "UACC-62 melanoma": {"test_system": "UACC-62 melanoma", "assay": "Cytotoxicity, UACC-62", "type": "cell-based", "conditions": "Homo sapiens, read-out: Log10 GI50, UACC-62 (converted)", "excerpt": "as §1"}, "OVCAR-4 ovarian cancer": {"test_system": "OVCAR-4 ovarian cancer", "assay": "Cytotoxicity, OVCAR-4", "type": "cell-based", "conditions": "Homo sapiens, read-out: Log10 GI50, OVCAR-4 (converted)", "excerpt": "as §1"}, "OVCAR-5 ovarian cancer": {"test_system": "OVCAR-5 ovarian cancer", "assay": "Cytotoxicity, OVCAR-5", "type": "cell-based", "conditions": "Homo sapiens, read-out: Log10 GI50, OVCAR-5 (converted)", "excerpt": "as §1"}, "OVCAR-8 ovarian cancer": {"test_system": "OVCAR-8 ovarian cancer", "assay": "Cytotoxicity, OVCAR-8", "type": "cell-based", "conditions": "Homo sapiens, read-out: Log10 GI50, OVCAR-8 (converted)", "excerpt": "as §1"}, "SK-OV-3 ovarian cancer": {"test_system": "SK-OV-3 ovarian cancer", "assay": "Cytotoxicity, SK-OV-3", "type": "cell-based", "conditions": "Homo sapiens, read-out: Log10 GI50, SK-OV-3 (converted)", "excerpt": "as §1"}, "SN12C renal cancer": {"test_system": "SN12C renal cancer", "assay": "Cytotoxicity, SN12C", "type": "cell-based", "conditions": "Homo sapiens, read-out: Log10 GI50, SN12C (converted)", "excerpt": "as §1"}, "UO-31 renal cancer": {"test_system": "UO-31 renal cancer", "assay": "Cytotoxicity, UO-31", "type": "cell-based", "conditions": "Homo sapiens, read-out: Log10 GI50, UO-31 (converted)", "excerpt": "as §1"}, "Water solubility": {"assay": "Water solubility", "type": "physicochemical"}, "[7]": {"test_system": "DMS 273 small cell lung cancer", "assay": "Cytotoxicity, DMS 273", "conditions": "Hydrochloride"}, "COLO 205 colon cancer": {"test_system": "COLO 205 colon cancer", "assay": "Cytotoxicity, COLO 205"}, "HL-60 (TB) leukemia": {"test_system": "HL-60 (TB) leukemia", "assay": "Cytotoxicity, HL-60(TB) leukemia", "conditions": "read-out: cytotoxicity GI50, HL-60(TB); 50% growth inhibition; average of two determinations; 8640 min; Hydrochloride, 8640 min"}},
  "note": "Several values for one entry are separate records, joined by “and”; a condition that tells them apart may be missing. Equal entries are not always repeated.",
  "data": [
    {"smiles": "COc1cc(CNc2ccc(C)cc2)cc(OC)c1OC.Cl", "note": "[110a, 4-Methyl-N-(3,4,5-trimethoxybenzyl)aniline Hydrochloride]", "values": [
      {"measurement": "GI50", "setting": "K-562 leukemia; Homo sapiens, K562, read-out: Log10 GI50, K-562 (converted)", "result": "< 100", "unit": "nM"},
      {"measurement": "Log10 GI50, K-562", "setting": "K-562 leukemia; Hydrochloride", "result": -7.00},
      {"measurement": "GI50", "setting": "[1]", "result": 741, "unit": "nM"},
      {"measurement": "GI50", "setting": "[2]", "result": 18600, "unit": "nM"},
      {"measurement": "GI50", "setting": "[3]", "result": 407, "unit": "nM"},
      {"measurement": "GI50", "setting": "[4]", "result": 501, "unit": "nM"},
      {"measurement": "GI50", "setting": "[5]", "result": 631, "unit": "nM"},
      {"measurement": "GI50", "setting": "[6]", "result": 427, "unit": "nM"},
      {"measurement": "GI50", "setting": "DLD-1 colon cancer", "result": 575, "unit": "nM"},
      {"measurement": "GI50", "setting": "HCT-116 colon cancer", "result": 575, "unit": "nM"},
      {"measurement": "GI50", "setting": "HCT-15 colon cancer", "result": 245, "unit": "nM"},
      {"measurement": "GI50", "setting": "HT29 colon cancer", "result": 347, "unit": "nM"},
      {"measurement": "GI50", "setting": "KM12 colon cancer", "result": 759, "unit": "nM"},
      {"measurement": "GI50", "setting": "KM20L2 colon cancer", "result": 251, "unit": "nM"},
      {"measurement": "GI50", "setting": "SW-620 colon cancer", "result": 110, "unit": "nM"},
      {"measurement": "GI50", "setting": "SF-268 CNS cancer", "result": 912, "unit": "nM"},
      {"measurement": "GI50", "setting": "SNB-78 CNS cancer", "result": 1100, "unit": "nM"},
      {"measurement": "GI50", "setting": "U251 CNS cancer", "result": 331, "unit": "nM"},
      {"measurement": "GI50", "setting": "XF498 CNS cancer", "result": 468, "unit": "nM"},
      {"measurement": "GI50", "setting": "LOX IMVI melanoma", "result": 851, "unit": "nM"},
      {"measurement": "GI50", "setting": "MALME-3M melanoma", "result": 468, "unit": "nM"},
      {"measurement": "GI50", "setting": "M19-MEL melanoma", "result": 331, "unit": "nM"},
      {"measurement": "GI50", "setting": "SK-MEL-5 melanoma", "result": 912, "unit": "nM"},
      {"measurement": "GI50", "setting": "UACC-257 melanoma", "result": "> 100000", "unit": "nM"},
      {"measurement": "GI50", "setting": "UACC-62 melanoma", "result": 575, "unit": "nM"},
      {"measurement": "GI50", "setting": "OVCAR-4 ovarian cancer", "result": 21400, "unit": "nM"},
      {"measurement": "GI50", "setting": "OVCAR-5 ovarian cancer", "result": 1350, "unit": "nM"},
      {"measurement": "GI50", "setting": "OVCAR-8 ovarian cancer", "result": 759, "unit": "nM"},
      {"measurement": "GI50", "setting": "SK-OV-3 ovarian cancer", "result": 269, "unit": "nM"},
      {"measurement": "GI50", "setting": "SN12C renal cancer", "result": 851, "unit": "nM"},
      {"measurement": "GI50", "setting": "UO-31 renal cancer", "result": 832, "unit": "nM"},
      {"measurement": "water solubility (in words)", "setting": "Water solubility", "result": "water soluble"},
      {"measurement": "Log10 GI50, DMS 273", "setting": "[7]", "result": "< -7.00 and -7.03"},
      {"measurement": "GI50", "setting": "[7]; read-out: cytotoxicity GI50, DMS 273, 50% growth inhibition, average of two determinations, 8640 min, 8640 min", "result": 104, "unit": "nM"},
      {"measurement": "Log10 GI50, COLO 205", "setting": "COLO 205 colon cancer", "result": -6.67},
      {"measurement": "GI50", "setting": "COLO 205 colon cancer; read-out: cytotoxicity GI50, COLO 205, 50% growth inhibition, average of two determinations, 8640 min, Hydrochloride, 8640 min", "result": 219, "unit": "nM"},
      {"measurement": "GI50", "setting": "HL-60 (TB) leukemia", "result": 72.2, "unit": "nM"}
    ]}
  ]
}
